The target of one assay is rat mGlu5 (Rattus norvegicus (Rat), UniProt P31424). As to the kind of experiment: mGlu5 Ca2+ flux assay. The note with it: for Fold selectivity (mGlu3 vs. mGlu5): ratio of rat mGlu5 EC50 or IC50 to rat mGlu3 IC50; for Emax at 30 µM: PAM, amplitude of response at 30 μM test compound as % of maximal response to glutamate, read-out: rat mGlu5 Glu max (%). It is filed as cell-based. An outline of the steps:
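Ca2+ flux read kinetically (FDSS7000) after overnight culture at 37° C/5% CO2 and a 5 min room-temperature buffer step following dye removal. Signals expressed per well as F/F0 and normalized to peak glutamate response; EC50 fitted by free 4-parameter logistic, three replicates per concentration equally weighted.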

Another assay deals with rat mGlu3 (Rattus norvegicus (Rat), UniProt P31422). Briefly: mGlu3 Ca2+ flux assay. It counts as cell-based. As to conditions: for remaining activity at 30 µM: amplitude of response at 30 μM test compound as % of maximal response to glutamate, read-out: rat mGlu3 Glu max (%). An outline of the steps: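 This calcium mobilization assay used rat mGlu3 cells cultured overnight (37° C., 5% CO2) and read on the FDSS7000 after a 10 minute room-temperature incubation in 20 μL assay buffer. Each of 360 readings per well was divided by its initial value (F/F0). Potency came from fitting normalized responses against log concentration with an unconstrained 4 parameter logistic equation, weighting triplicate points equally.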

The mark [1] stands for this setting: read-out: rat mGlu5 EC50 or IC50.
Where [2] appears, read: NAM potency, decrease of glutamate EC80 response, >30,000 = no measurable activity, >10,000 = no plateau, read-out: rat mGlu3 IC50.
The mark [3] stands for this setting: Table 2 compounds with X = NH, response at 30 μM compound as percentage of maximal glutamate response.

The values that follow come from US9676782B2, “Substituted pyrazolo[1,5-a]pyrazines as negative allosteric modulators of metabotropic glutamate receptor 3” (Vanderbilt University, priority 2014, dated 2017).

Read-outs that look alike come from different tables or passages of the source.

Chain of rat mGlu5 (P31424 21-1203): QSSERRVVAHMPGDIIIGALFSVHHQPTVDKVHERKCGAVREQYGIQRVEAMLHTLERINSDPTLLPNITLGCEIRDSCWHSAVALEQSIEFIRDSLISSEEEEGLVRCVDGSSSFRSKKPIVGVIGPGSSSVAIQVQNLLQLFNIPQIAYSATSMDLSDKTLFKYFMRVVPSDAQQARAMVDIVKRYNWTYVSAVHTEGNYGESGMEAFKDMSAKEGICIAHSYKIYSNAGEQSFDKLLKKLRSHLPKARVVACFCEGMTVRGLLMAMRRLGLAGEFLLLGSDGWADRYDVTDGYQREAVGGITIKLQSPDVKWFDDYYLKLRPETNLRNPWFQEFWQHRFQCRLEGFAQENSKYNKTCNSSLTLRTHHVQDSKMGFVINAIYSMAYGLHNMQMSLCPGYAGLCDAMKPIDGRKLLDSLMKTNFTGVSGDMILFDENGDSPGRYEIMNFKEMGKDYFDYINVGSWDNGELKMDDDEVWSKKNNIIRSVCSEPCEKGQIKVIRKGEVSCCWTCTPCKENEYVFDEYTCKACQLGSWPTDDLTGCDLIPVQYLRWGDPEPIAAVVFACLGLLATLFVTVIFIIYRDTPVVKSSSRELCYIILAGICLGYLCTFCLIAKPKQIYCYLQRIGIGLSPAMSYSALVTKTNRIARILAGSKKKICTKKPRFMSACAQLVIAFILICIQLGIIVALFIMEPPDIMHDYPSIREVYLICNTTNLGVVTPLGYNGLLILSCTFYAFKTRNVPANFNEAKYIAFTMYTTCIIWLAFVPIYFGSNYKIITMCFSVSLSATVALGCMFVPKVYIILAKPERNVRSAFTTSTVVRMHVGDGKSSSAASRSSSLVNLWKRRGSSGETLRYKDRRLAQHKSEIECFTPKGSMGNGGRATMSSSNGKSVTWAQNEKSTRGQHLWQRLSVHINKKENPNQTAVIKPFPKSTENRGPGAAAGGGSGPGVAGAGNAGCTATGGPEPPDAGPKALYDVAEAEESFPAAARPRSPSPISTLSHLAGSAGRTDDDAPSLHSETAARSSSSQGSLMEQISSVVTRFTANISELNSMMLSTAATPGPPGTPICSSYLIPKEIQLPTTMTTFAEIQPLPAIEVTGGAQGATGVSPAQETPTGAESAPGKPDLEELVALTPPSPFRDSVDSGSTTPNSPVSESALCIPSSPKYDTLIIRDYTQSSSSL
Chain of rat mGlu3 (P31422 23-879): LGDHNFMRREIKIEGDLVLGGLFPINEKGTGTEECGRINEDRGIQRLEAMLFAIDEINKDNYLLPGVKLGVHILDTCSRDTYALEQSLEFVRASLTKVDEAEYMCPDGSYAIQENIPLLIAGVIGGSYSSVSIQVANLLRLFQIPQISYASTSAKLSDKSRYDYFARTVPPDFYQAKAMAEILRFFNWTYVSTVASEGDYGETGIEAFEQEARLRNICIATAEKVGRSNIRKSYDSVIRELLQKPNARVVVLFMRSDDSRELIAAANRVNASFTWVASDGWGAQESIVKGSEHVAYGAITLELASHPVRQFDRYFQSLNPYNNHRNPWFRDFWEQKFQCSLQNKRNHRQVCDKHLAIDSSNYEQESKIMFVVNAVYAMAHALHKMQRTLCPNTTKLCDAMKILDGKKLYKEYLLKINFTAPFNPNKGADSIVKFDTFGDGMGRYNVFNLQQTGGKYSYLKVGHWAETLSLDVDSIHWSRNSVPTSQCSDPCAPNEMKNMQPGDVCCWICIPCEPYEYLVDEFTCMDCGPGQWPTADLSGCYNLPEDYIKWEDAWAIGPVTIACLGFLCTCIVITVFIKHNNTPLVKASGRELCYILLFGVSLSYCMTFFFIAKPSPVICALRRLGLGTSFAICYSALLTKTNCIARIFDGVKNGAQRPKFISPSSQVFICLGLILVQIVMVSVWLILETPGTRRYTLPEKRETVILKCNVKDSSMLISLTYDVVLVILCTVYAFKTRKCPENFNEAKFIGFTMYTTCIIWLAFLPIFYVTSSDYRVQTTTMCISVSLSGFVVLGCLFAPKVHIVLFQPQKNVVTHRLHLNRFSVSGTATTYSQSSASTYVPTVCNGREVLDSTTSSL

Turning to `COc1ccc(N(C)Cc2cc3n(n2)CCN(c2cccc(F)c2F)C3=O)cc1` [Compound 107, 5-(2,3-difluorophenyl)-2-(((4-methoxyphenyl)(methyl)amino)methyl)-6,7-dihydropyrazolo[1,5-a]pyrazin-4(5H)-one], the “Fold selectivity (mGlu3 vs. mGlu5)” value at rat mGlu5 is greater than 29. Also, the EC50 on rat mGlu5 (setting [1]) is greater than 30000 nM. For the same compound, the IC50 on rat mGlu3 (setting [2]) stood at 1030 nM. The remaining activity at 30 µM at rat mGlu3 amounted to 1.67%.
As for `Cc1cc(NCc2cc3n(n2)CCN(c2ccc(F)cc2)C3=O)ccc1F` [Compound 36, 2-(((4-fluoro-3-methylphenyl)amino)methyl)-5-(4-fluorophenyl)-6,7-dihydropyrazolo[1,5-a]pyrazin-4(5H)-one], at rat mGlu5, the “Fold selectivity (mGlu3 vs. mGlu5)” value is greater than 17. Also, the EC50 on rat mGlu5 (setting [1]) is greater than 30000 nM. Besides, the IC50 at rat mGlu3 (setting [2]) was 1670 nM. The remaining activity at 30 µM on rat mGlu3 was 1.91%.
On to `C[C@H]1CN(c2ccc(F)cc2)C(=O)c2cc(CNc3ccccc3)nn21` [Compound 41, (S)-5-(4-fluorophenyl)-7-methyl-2-((phenylamino)methyl)-6,7-dihydropyrazolo[1,5-a]pyrazin-4(5H)-one], for which, at rat mGlu5, the Emax at 30 µM worked out at 81.7% and the “Fold selectivity (mGlu3 vs. mGlu5)” value worked out at 0.17. In addition, the EC50 on rat mGlu5 (setting [1]) is 1360 nM. Also, at rat mGlu3 (setting [2]), the IC50 was 8110 nM. Besides, the remaining activity at 30 µM at rat mGlu3 is -2.27%.
Turning to `COc1ccc(NC(C)c2cc3n(n2)CCN(c2ccc(F)cc2)C3=O)cc1` (centres unmarked) [Compound 169, 5-(4-Fluorophenyl)-2-(1-((4-methoxyphenyl)amino)ethyl)-6,7-dihydropyrazolo[1,5-a]pyrazin-4(5H)-one], the “Fold selectivity (mGlu3 vs. mGlu5)” value on rat mGlu5 is on record as greater than 3.8. Besides, the EC50 at rat mGlu5 (setting [1]) is greater than 30000 nM. Further, the IC50 at rat mGlu3 (setting [2]) amounted to 7740 nM. In addition, the remaining activity at 30 µM on rat mGlu3 is -6.64%.
Turning to `COc1ccc(N(C)Cc2cc3n(n2)CCN(c2cc(F)cc(F)c2)C3=O)cc1` [Compound 104, 5-(3,5-difluorophenyl)-2-(((4-methoxyphenyl)(methyl)amino)methyl)-6,7-dihydropyrazolo[1,5-a]pyrazin-4(5H)-one], at rat mGlu5, the “Fold selectivity (mGlu3 vs. mGlu5)” value is greater than 35. Also, the EC50 on rat mGlu5 (setting [1]) is greater than 30000 nM. Moreover, at rat mGlu3 (setting [2]), the IC50 was 856 nM. The remaining activity at 30 µM at rat mGlu3 was 1.3%.
Turning to `O=C1c2cc(CNc3ccc(OC(F)F)c(F)c3)nn2CCN1c1ccc(F)cc1` [Compound 38, 2-(((4-(difluoromethoxy)-3-fluorophenyl)amino)methyl)-5-(4-fluorophenyl)-6,7-dihydropyrazolo[1,5-a]pyrazin-4(5H)-one], on rat mGlu5, the Emax at 30 µM is 84.7% and the “Fold selectivity (mGlu3 vs. mGlu5)” value came out at 3.19. On rat mGlu5 (setting [1]), the EC50 came to 1560 nM. In addition, the IC50 on rat mGlu3 (setting [2]) was 489 nM. Moreover, the remaining activity at 30 µM at rat mGlu3 worked out at 2.28%.
Taken in the same sequence, the figures for `O=C1c2cc(CNc3cc(F)cc(F)c3)nn2CCN1c1ccc(F)cc1` [Compound 30, 2-(((3,5-difluorophenyl)amino)methyl)-5-(4-fluorophenyl)-6,7-dihydropyrazolo[1,5-a]pyrazin-4(5H)-one] were 102%, 8.73, 6440 nM, 738 nM and 2.71%.
As for `C[C@@H]1CN(c2ccc(F)cc2)C(=O)c2cc(CNc3cccc(Cl)c3)nn21` [Compound 48, (R)-2-(((3-chlorophenyl)amino)methyl)-5-(4-fluorophenyl)-7-methyl-6,7-dihydropyrazolo[1,5-a]pyrazin-4(5H)-one], on rat mGlu5, the Emax at 30 µM was 88.8% and the “Fold selectivity (mGlu3 vs. mGlu5)” value is recorded as greater than 6.0. Besides, the EC50 at rat mGlu5 (setting [1]) was greater than 10000 nM. At rat mGlu3, the remaining activity at 30 µM is 1.63%. Moreover, at rat mGlu3 (read-out: rat mGlu3 IC50), the IC50 came out at 1650 nM.
`O=C1c2cc(CNc3cccc(F)c3)nn2CCN1c1ccc(F)cc1` [Compound 7, 5-(4-fluorophenyl)-2-(((3-fluorophenyl)amino)methyl)-6,7-dihydropyrazolo[1,5-a]pyrazin-4(5H)-one]: at rat mGlu5, the Emax at 30 µM is 99% and the “Fold selectivity (mGlu3 vs. mGlu5)” value is given as 2.13. For the same compound, on rat mGlu5 (setting [1]), the EC50 worked out at 2210 nM. Further, the IC50 on rat mGlu3 (setting [2]) amounted to 1040 nM. Further, at rat mGlu3, the remaining activity at 30 µM was 1.28%.
Turning to `COc1ccc(N(C)Cc2cc3n(n2)CCN(c2cc(F)cc(Cl)c2)C3=O)cc1` [Compound 131, 5-(3-chloro-5-fluorophenyl)-2-(((4-methoxyphenyl)(methyl)amino)methyl)-6,7-dihydropyrazolo[1,5-a]pyrazin-4(5H)-one], the “Fold selectivity (mGlu3 vs. mGlu5)” value at rat mGlu5 is greater than 21. Further, the EC50 on rat mGlu5 (setting [1]) was greater than 30000 nM. Moreover, the remaining activity at 30 µM on rat mGlu3 amounted to 1.95%. Also, the IC50 on rat mGlu3 (read-out: rat mGlu3 IC50) was 1370 nM.
As for `COc1ccc(N(C)Cc2cc3n(n2)CCN(c2ccccc2Cl)C3=O)cc1` [Compound 100, 5-(2-chlorophenyl)-2-(((4-methoxyphenyl)(methyl)amino)methyl)-6,7-dihydropyrazolo[1,5-a]pyrazin-4(5H)-one], the “Fold selectivity (mGlu3 vs. mGlu5)” value at rat mGlu5 is greater than 38. Moreover, the EC50 at rat mGlu5 (setting [1]) was greater than 30000 nM. Further, at rat mGlu3 (setting [2]), the IC50 came to 777 nM. In addition, the remaining activity at 30 µM on rat mGlu3 was found to be 1.8%.
Regarding `O=C1c2cc(CNc3ccccc3F)nn2CCN1c1ccc(F)cc1` [drawing 30 X = NH], the EC50 on rat mGlu5 (Table 2 compounds with X = NH, read-out: mGlu5 EC50) came to 2470 nM. The “mGlu5 Glu max” value on rat mGlu5 (setting [3]) was 96%. Further, at rat mGlu3 (Table 2 compounds with X = NH, read-out: mGlu3 IC50), the IC50 is 944 nM. The “mGlu3 Glu max” value on rat mGlu3 (setting [3]) was 2%.
For the compound `COc1ccc(N(C)Cc2cc3n(n2)CCN(c2cc(Cl)cc(OC)c2)C3=O)cc1` [Compound 134, 5-(3-chloro-5-methoxyphenyl)-2-(((4-methoxyphenyl)(methyl)amino)methyl)-6,7-dihydropyrazolo[1,5-a]pyrazin-4(5H)-one], the “Fold selectivity (mGlu3 vs. mGlu5)” value on rat mGlu5 was greater than 17. For the same compound, the EC50 on rat mGlu5 (setting [1]) was greater than 30000 nM. Also, the IC50 on rat mGlu3 (setting [2]) was determined as 1710 nM. The remaining activity at 30 µM at rat mGlu3 turned out to be 1.77%.
Taken in the same sequence, the figures for `COc1ccc(N(C)Cc2cc3n(n2)CCN(c2c(F)cccc2F)C3=O)cc1` [Compound 110, 5-(2,6-difluorophenyl)-2-(((4-methoxyphenyl)(methyl)amino)methyl)-6,7-dihydropyrazolo[1,5-a]pyrazin-4(5H)-one] were greater than 18, greater than 30000 nM, 1640 nM and 1.75%.
As to `O=C1c2cc(CNc3c(F)cc(F)cc3F)nn2CCN1c1ccc(F)cc1` [Compound 33, 5-(4-fluorophenyl)-2-(((2,4,6-trifluorophenyl)amino)methyl)-6,7-dihydropyrazolo[1,5-a]pyrazin-4(5H)-one], on rat mGlu5, the Emax at 30 µM amounted to 89.7% and the “Fold selectivity (mGlu3 vs. mGlu5)” value was 0.87. For the same compound, at rat mGlu5 (setting [1]), the EC50 came out at 1110 nM. The IC50 at rat mGlu3 (setting [2]) was determined as 1270 nM. In addition, the remaining activity at 30 µM at rat mGlu3 was found to be 1.82%.
For `C[C@H]1CN(c2ccc(F)cc2)C(=O)c2cc(CNc3ccc(F)cc3F)nn21` [Compound 76, (S)-2-(((2,4-difluorophenyl)amino)methyl)-5-(4-fluorophenyl)-7-methyl-6,7-dihydropyrazolo[1,5-a]pyrazin-4(5H)-one], in that order: 86.1%, 7.00, 8190 nM, 1170 nM and 0.35%.
